Results as given in PubChem BioAssay (NCI).
Values joined by “and” are separate entries in the source; they are usually repeats but may differ in a detail not shown here. Equal values may be shown once.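 Grown in 96-well plates, cells were treated for 48 hours with each compound at five concentrations. Insufficient inhibition: endpoint recorded as highest concentration tested. The concentration for 50% growth inhibition is given as GI50. The concentration for full growth arrest is given as TGI.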

What was measured:
Assay in all cases: inhibition of tumour cell growth, NCI panel, 48 h
NCI-H460 lung = test system: NCI-H460 lung
ACHN renal = test system: ACHN renal
NCI-H23 lung = test system: NCI-H23 lung
UACC-257 melanoma = test system: UACC-257 melanoma
A498 renal = test system: A498 renal
SK-MEL-2 melanoma = test system: SK-MEL-2 melanoma
UACC-62 melanoma = test system: UACC-62 melanoma
SNB-78 CNS = test system: SNB-78 CNS
EKVX NSCLC = test system: EKVX NSCLC
IGROV1 ovarian = test system: IGROV1 ovarian
MOLT-4 leukemia = test system: MOLT-4 leukemia
SF-539 CNS = test system: SF-539 CNS
DMS 114 small cell lung = test system: DMS 114 small cell lung
OVCAR-8 ovarian = test system: OVCAR-8 ovarian
KM20L2 colon = test system: KM20L2 colon
HCT-15 colon = test system: HCT-15 colon
MALME-3M melanoma = test system: MALME-3M melanoma
M19-MEL melanoma = test system: M19-MEL melanoma
OVCAR-5 ovarian = test system: OVCAR-5 ovarian
SF-295 CNS = test system: SF-295 CNS
SNB-75 CNS = test system: SNB-75 CNS
KM12 colon = test system: KM12 colon
M14 melanoma = test system: M14 melanoma
XF 498 CNS = test system: XF 498 CNS
OVCAR-4 ovarian = test system: OVCAR-4 ovarian
SK-OV-3 ovarian = test system: SK-OV-3 ovarian
RXF 393 renal = test system: RXF 393 renal
LXFL 529 NSCLC = test system: LXFL 529 NSCLC
HOP-62 NSCLC = test system: HOP-62 NSCLC
OVCAR-3 ovarian = test system: OVCAR-3 ovarian
A549 NSCLC = test system: A549 NSCLC
HCC-2998 colon = test system: HCC-2998 colon
TK-10 renal = test system: TK-10 renal
SK-MEL-28 melanoma = test system: SK-MEL-28 melanoma
SF-268 CNS = test system: SF-268 CNS
HT29 colon = test system: HT29 colon
DLD-1 colon = test system: DLD-1 colon
SN12C renal = test system: SN12C renal
SK-MEL-5 melanoma = test system: SK-MEL-5 melanoma
DMS 273 small cell lung = test system: DMS 273 small cell lung
U251 CNS = test system: U251 CNS
CCRF-CEM leukemia = test system: CCRF-CEM leukemia
SNB-19 CNS = test system: SNB-19 CNS
RPMI-8226 leukemia = test system: RPMI-8226 leukemia
COLO 205 colon = test system: COLO 205 colon
LOX IMVI melanoma = test system: LOX IMVI melanoma
SW-620 colon = test system: SW-620 colon
786-0 renal = test system: 786-0 renal
K-562 leukemia = test system: K-562 leukemia
CAKI-1 renal = test system: CAKI-1 renal
RXF-631 renal = test system: RXF-631 renal
HCT-116 colon = test system: HCT-116 colon
HOP-18 NSCLC = test system: HOP-18 NSCLC
UO-31 renal = test system: UO-31 renal
HOP-92 NSCLC = test system: HOP-92 NSCLC
HL-60(TB) leukemia = test system: HL-60(TB) leukemia
NCI-H226 lung = test system: NCI-H226 lung
SR leukemia = test system: SR leukemia

CCP(C)(C)=O
TGI (NCI-H460 lung): > 100 µM | TGI (ACHN renal): > 100 µM | TGI (NCI-H23 lung): > 100 µM | TGI (UACC-257 melanoma): > 100 µM | TGI (A498 renal): > 100 µM | TGI (SK-MEL-2 melanoma): > 100 µM | TGI (UACC-62 melanoma): > 100 µM | TGI (SNB-78 CNS): > 100 µM | TGI (EKVX NSCLC): > 100 µM | TGI (IGROV1 ovarian): > 100 µM | TGI (MOLT-4 leukemia): > 100 µM | TGI (SF-539 CNS): > 100 µM | TGI (DMS 114 small cell lung): > 100 µM | TGI (OVCAR-8 ovarian): > 100 µM | TGI (KM20L2 colon): > 100 µM | TGI (HCT-15 colon): > 100 µM | TGI (MALME-3M melanoma): > 100 µM | TGI (M19-MEL melanoma): > 100 µM | TGI (OVCAR-5 ovarian): > 100 µM | TGI (SF-295 CNS): > 100 µM | TGI (SNB-75 CNS): > 100 µM | TGI (KM12 colon): > 100 µM | TGI (M14 melanoma): > 100 µM | TGI (XF 498 CNS): > 100 µM | TGI (OVCAR-4 ovarian): > 100 µM | TGI (SK-OV-3 ovarian): > 100 µM | TGI (RXF 393 renal): > 100 µM | TGI (LXFL 529 NSCLC): > 100 µM | TGI (HOP-62 NSCLC): > 100 µM | TGI (OVCAR-3 ovarian): > 100 µM | TGI (A549 NSCLC): > 100 µM | TGI (HCC-2998 colon): > 100 µM | TGI (TK-10 renal): > 100 µM | TGI (SK-MEL-28 melanoma): > 100 µM | TGI (SF-268 CNS): > 100 µM | TGI (HT29 colon): > 100 µM | TGI (DLD-1 colon): > 100 µM | TGI (SN12C renal): > 100 µM | TGI (SK-MEL-5 melanoma): > 100 µM | TGI (DMS 273 small cell lung): > 100 µM | TGI (U251 CNS): > 100 µM | TGI (CCRF-CEM leukemia): > 100 µM | TGI (SNB-19 CNS): > 100 µM | TGI (RPMI-8226 leukemia): > 100 µM | TGI (COLO 205 colon): > 100 µM | TGI (LOX IMVI melanoma): > 100 µM | TGI (SW-620 colon): > 100 µM | TGI (786-0 renal): > 100 µM | TGI (K-562 leukemia): > 100 µM | TGI (CAKI-1 renal): > 100 µM

CC(=O)OCC1OC(n2c(=S)n(-c3ccccc3)c(=S)c3ccccc32)C(OC(C)=O)C(OC(C)=O)C1OC(C)=O (stereo not drawn)
GI50 (SK-MEL-2 melanoma): 78.6 µM and > 35.8 µM | TGI (SK-MEL-2 melanoma): > 100 µM | TGI (SF-539 CNS): > 100 µM | TGI (RXF-631 renal): > 100 µM | TGI (HCT-116 colon): > 100 µM | TGI (SNB-75 CNS): > 100 µM | TGI (M14 melanoma): > 100 µM | GI50 (XF 498 CNS): 28.3 µM and 4.4 µM | TGI (XF 498 CNS): > 100 µM | GI50 (RXF 393 renal): 38.4 µM and 4.04 µM | TGI (RXF 393 renal): > 100 µM | TGI (HOP-18 NSCLC): > 100 µM | GI50 (LXFL 529 NSCLC): 62.3 µM and 8.58 µM | TGI (LXFL 529 NSCLC): > 100 µM | TGI (TK-10 renal): > 100 µM | GI50 (SF-268 CNS): 77.9 µM and 9.64 µM | TGI (SF-268 CNS): > 100 µM | TGI (UO-31 renal): > 100 µM | GI50 (LOX IMVI melanoma): 60.4 µM and 19.7 µM | TGI (LOX IMVI melanoma): > 100 µM | TGI (HOP-92 NSCLC): > 100 µM | TGI (786-0 renal): > 100 µM | GI50 (CAKI-1 renal): 50.7 µM and 20 µM | TGI (CAKI-1 renal): > 100 µM

NCCn1cnc2nc(NC(=O)c3ccccc3)[nH]c(=O)c21
TGI (NCI-H460 lung): > 100 µM | TGI (ACHN renal): > 100 µM | TGI (HL-60(TB) leukemia): > 100 µM | TGI (NCI-H23 lung): > 100 µM | TGI (UACC-257 melanoma): > 100 µM | TGI (A498 renal): > 100 µM | TGI (SK-MEL-2 melanoma): > 100 µM | TGI (SNB-78 CNS): > 100 µM | TGI (EKVX NSCLC): > 100 µM | TGI (IGROV1 ovarian): > 100 µM | TGI (MOLT-4 leukemia): > 100 µM | TGI (SF-539 CNS): > 100 µM | TGI (DMS 114 small cell lung): > 100 µM | TGI (OVCAR-8 ovarian): > 100 µM | TGI (RXF-631 renal): > 100 µM | TGI (KM20L2 colon): > 100 µM | TGI (HCT-15 colon): > 100 µM | TGI (HCT-116 colon): > 100 µM | TGI (MALME-3M melanoma): > 100 µM | TGI (M19-MEL melanoma): > 100 µM | TGI (OVCAR-5 ovarian): > 100 µM | TGI (SF-295 CNS): > 100 µM | TGI (SNB-75 CNS): > 100 µM | TGI (KM12 colon): > 100 µM | TGI (NCI-H226 lung): > 100 µM | TGI (RXF 393 renal): > 100 µM | TGI (HOP-18 NSCLC): > 100 µM | TGI (LXFL 529 NSCLC): > 100 µM | TGI (HOP-62 NSCLC): > 100 µM | TGI (OVCAR-3 ovarian): > 100 µM | TGI (SR leukemia): > 100 µM | TGI (A549 NSCLC): > 100 µM | TGI (HCC-2998 colon): > 100 µM | TGI (TK-10 renal): > 100 µM | TGI (SK-MEL-28 melanoma): > 100 µM | TGI (SF-268 CNS): > 100 µM | TGI (HT29 colon): > 100 µM | TGI (DLD-1 colon): > 100 µM | TGI (SN12C renal): > 100 µM | TGI (U251 CNS): > 100 µM | TGI (UO-31 renal): > 100 µM | TGI (SNB-19 CNS): > 100 µM | TGI (RPMI-8226 leukemia): > 100 µM | TGI (COLO 205 colon): > 100 µM | TGI (LOX IMVI melanoma): > 100 µM | TGI (SW-620 colon): > 100 µM | TGI (HOP-92 NSCLC): > 100 µM | TGI (786-0 renal): > 100 µM | TGI (K-562 leukemia): > 100 µM
